Measurements: patent publication US5945436A, “Pyridylmethyl nitriles, amides and thioamides useful as fungicides” (Uniroyal Chemical Company, Inc., priority 1997, dated 1999)

How the values were obtained:
Erysiphe graminis [1] = test: Powdery mildew in barley, foliar application (ERY GRA); assay type: in vivo; conditions: foliar, 1,000 mg/l, 8 days after inoculation
Protocol: (§1) Compositions containing Compounds Nos. 1-81 were prepared by dissolving 0.24 grams of each of the compounds in 8 ml of acetone or other suitable inert solvent. Each of the resultant solutions was treated with 3 drops of TWEEN 20 (ethoxylated ethylene sorbitan monolaurate, a non-ionic surfactant)(I.C.I.), and water was added to form an emulsion. The degree of dilution with water was dictated by the desired concentration of the compound in the composition. The greater the quantity of water added, the lower the concentration of the compound in the composition, reported in milligrams per liter (mg/l) Ten plants of "Robust" variety barley were planted in each of a plurality of pots. Each pot was then either sprayed with one of the compositions of Example 9, at a composition concentration of 1,000 mg/l, or left unsprayed. For each pot sprayed, one pot was left unsprayed as a control. After the leaves of the sprayed pots were dried, the sprayed pots and the unsprayed control pots were placed in a greenhouse maintained at 21° C. All the pots were then inoculated with barley powdery mildew fungus, Erysiphe graminis. This inoculation was accomplished by distributing spores of the fungus over the leaves of the plants to be tested from plants which had previously been infected with the mildew disease. […] Again, percent control was computed by comparing the treatment scores with the scores of the untreated controls. The results are summarized in Table II under the heading "ERY GRA".

Uromyces phaseoli = test: Bean rust fungus eradicant test (URO PHA); assay type: in vivo; conditions: pinto bean, eradicant spray 2 days after inoculation, 1,000 mg/l
Protocol: Compositions containing Compounds Nos. 1-81 were prepared by dissolving 0.24 grams of each of the compounds in 8 ml of acetone or other suitable inert solvent. Each of the resultant solutions was treated with 3 drops of TWEEN 20 (ethoxylated ethylene sorbitan monolaurate, a non-ionic surfactant)(I.C.I.), and water was added to form an emulsion. The degree of dilution with water was dictated by the desired concentration of the compound in the composition. The greater the quantity of water added, the lower the concentration of the compound in the composition, reported in milligrams per liter (mg/l) A plurality of pots were each planted with two pinto bean plants, Phaseolus vulgaris, each, susceptible to rust disease. When the plants were 7 days old, at the primary leaf stage of growth, they were all sprayed with a suspension containing 20,000 spores of the bean rust fungus, Uromyces phaseoli, per ml. All the pots were then incubated in a controlled environmental chamber, maintained at 99% humidity and 21° C., for 24 hours to allow infection to occur. The plants were then removed from the incubator and allowed to dry. Two days after inoculation each of the infected plants was then either sprayed with one of the compositions of Example 9, at a dosage of 1,000 mg/l, or left unsprayed. The unsprayed plants acted as controls. All of the sprayed and unsprayed plants were then placed in a greenhouse at 21° C. for nine days to allow the disease to develop. […] Control of disease was determined by comparing treated plants with the untreated controls. The results, expressed as percent reduction of disease, are summarized in Table II under the heading "URO PHA".

Pyricularia oryzae = test: whole plant or invertebrate; assay type: in vivo; conditions: barley, foliar, 1,000 mg/l
Septoria nodorum = test: Fungal growth inhibition, treated disc on agar (SEP NOD); assay type: cell-based; conditions: disc dipped in 500 mg/l, 29° C.
Erysiphe polygoni = test: Powdery mildew on pinto bean, foliar application (ERY POL); assay type: in vivo; conditions: similar procedure as barley (1,000 mg/l)
Protocol: as §1, with “GRA". Using a similar procedure as described above for the barley, pinto bean plants were prepared, treated and inoculated with the fungus Erysiphe polygoni. The results of this testing are summarized in Table II under the heading "ERY POL".” for “GRA".”

Fusarium oxysporum = test: Fungal growth inhibition, treated disc on agar (FUS OXY); assay type: cell-based; conditions: disc dipped in 500 mg/l, 29° C.
Helminthosporium sativum = test: Barley spot blotch, foliar treatment (HEL SAT); assay type: in vivo; conditions: foliar, 1,000 mg/l
Protocol: Compositions containing Compounds Nos. 1-81 were prepared by dissolving 0.24 grams of each of the compounds in 8 ml of acetone or other suitable inert solvent. Each of the resultant solutions was treated with 3 drops of TWEEN 20 (ethoxylated ethylene sorbitan monolaurate, a non-ionic surfactant)(I.C.I.), and water was added to form an emulsion. The degree of dilution with water was dictated by the desired concentration of the compound in the composition. The greater the quantity of water added, the lower the concentration of the compound in the composition, reported in milligrams per liter (mg/l) Ten plants of six day-old Barley (variety "Robust") were planted in each of a plurality of pots. Each pot was then either sprayed with one of the compositions of Example 9, at a concentration of 1,000 mg/l, or left unsprayed. The unsprayed plants were used as controls. An equal number of pots were sprayed and unsprayed. All plants, sprayed and unsprayed, were thereafter inoculated with spores of the blotch fungus Helminthosporium sativum. All inoculated plants were placed in a 99% humidity chamber for 24 hours and then placed in a greenhouse, maintained at a temperature of 21° C., for eight days. […] Percent control was computed and the results are summarized in Table II under the heading "HEL SAT".

Erysiphe cichoracearum = test: Powdery mildew of cucumber, systemic root uptake (CMS); assay type: in vivo; conditions: 45 ml of 250 mg/l, 8 days after inoculation
Protocol: (§2) Compositions containing Compounds Nos. 1-81 were prepared by dissolving 0.24 grams of each of the compounds in 8 ml of acetone or other suitable inert solvent. Each of the resultant solutions was treated with 3 drops of TWEEN 20 (ethoxylated ethylene sorbitan monolaurate, a non-ionic surfactant)(I.C.I.), and water was added to form an emulsion. The degree of dilution with water was dictated by the desired concentration of the compound in the composition. The greater the quantity of water added, the lower the concentration of the compound in the composition, reported in milligrams per liter (mg/l) […] Upon reaching these ages, the plants were either treated with 45 ml of 250 mg/l concentration of the compositions of Example 9 or were left untreated. The untreated plants were used as controls. The 45 ml compositions saturated the soil of the treated pots without significant loss through drainage into the saucers below the pots. Twenty-four hours after the treatment with the compositions, both the barley and cucumber plants in all the pots, those treated and those untreated, were inoculated with powdery mildew fungus. This was accomplished by tapping leaves of previously infected barley and cucumber plants over the treated and untreated pots containing the barley and cucumber plants, respectively, to distribute spores of the fungus over the plants tested. […] Intermediate ratings were assigned depending on the degree of disease. […] The results of the powdery mildew disease control of barley are reported under the heading of "BMS". The results for cucumber mildew control are reported under the heading "CMS".

Rhizoctonia solani = test: Fungal growth inhibition, treated disc on agar (RHI SOL); assay type: cell-based; conditions: disc dipped in 500 mg/l, 29° C.
Colletotrichum gossypii = test: Fungal growth inhibition, treated disc on agar (COL GOS); assay type: cell-based; conditions: disc dipped in 500 mg/l, 29° C.
Botrytis cinerea = test: Fungal growth inhibition, treated disc on agar (BOT CIN); assay type: cell-based; conditions: disc dipped in 500 mg/l, 29° C.
Text: (§3) Filter paper discs, each 11 mm. in diameter, were dipped in each of the test solutions. The discs were allowed to air dry to drive off the acetone solvent. A number of untreated discs were used as controls.
(§4) The treated and untreated discs were then placed on agar plates and one of the following fungus species: Septoria nodorum (SEP NOD), Botrytis cinerea (BOT CIN), Fusarium oxysporum (FUS OXY), Pythium ultimum (PYT ULT), Rhizoctonia solani (RHI SOL), Colletotrichum gossypii (COL GOS), and Scierotinia minor (SCL MIN), was added to the center of each disc in the form of a culture plug with the fungus mat in contact with the paper of the test disc. Cercosporidium personatum (CER PER), was added to discs as a spore suspension (20,000 spores/ml) to the disc (two drops of spore suspension per disc), rather than a mycelial culture plug. The plates were then incubated at 29° C. in an oven.
(§5) With the exception of the discs containing Cercosporidium personatum, the discs were evaluated by first measuring the radius from the center of the fungus colony on the treated discs and on the untreated discs. Percent growth inhibition of each of the compounds tested was determined as a function of the difference between the radius of the fungus colony on the treated disc versus the radius of the fungus colony on the untreated disc.

Scierotinia minor = test: Fungal growth inhibition, treated disc on agar (SCL MIN); assay type: cell-based; conditions: disc dipped in 500 mg/l, 29° C.
Text: as §3, §4, §5

Erysiphe graminis [2] = test: Powdery mildew of barley, systemic root uptake (BMS); assay type: in vivo; conditions: 45 ml of 250 mg/l, 8 days after inoculation
Protocol: as §2

Pythium ultimum = test: Fungal growth inhibition, treated disc on agar (PYT ULT); assay type: cell-based; conditions: disc dipped in 500 mg/l, 29° C.
Text: as §3, §4, §5

CCCCC(C#N)(CCc1ccc(OC)cc1)c1ccccn1 (centres unmarked) [Compound 27]
Percent Reduction of Disease, ERY GRA (Erysiphe graminis [1]): 90% | Percent Reduction of Disease, URO PHA (Uromyces phaseoli): 100% | Percent Reduction of Disease, PYR ORY (Pyricularia oryzae): 70% | Percent Growth Inhibition, SEP NOD (Septoria nodorum): 10% | Percent Reduction of Disease, ERY POL (Erysiphe polygoni): 90% | Percent Growth Inhibition, FUS OXY (Fusarium oxysporum): 10% | Percent Reduction of Disease, HEL SAT (Helminthosporium sativum): 90% | Percent Reduction of Disease, CMS (Erysiphe cichoracearum): 0% | Percent Growth Inhibition, RHI SOL (Rhizoctonia solani): 5% | Percent Growth Inhibition, COL GOS (Colletotrichum gossypii): 20% | Percent Growth Inhibition, BOT CIN (Botrytis cinerea): 78% | Percent Growth Inhibition, SCL MIN (Scierotinia minor): 93% | Percent Reduction of Disease, BMS (Erysiphe graminis [2]): 0% | Percent Growth Inhibition, PYT ULT (Pythium ultimum): 10%
